How the values were obtained:
Stability Study = type: physicochemical; details: for Appearance / Crystal Form / Product Purity: 30° C. ± 2° C./RH 65% ± 5%
Excerpt: The stability of the new crystal form prepared by the method of Example 1 of the present invention was studied.

Flowability Study = type: physicochemical
Excerpt: The flowability of the new crystal form prepared in Examples 1, 2 and 3 of the present invention was studied.

[1] = Determination of Absolute Bioavailability; details: rat, in vivo; rats, intravenous administration and oral administration

In the case of `CC(C)OC(=O)C(C)(C)N[P@](=O)(CO[C@H](C)Cn1cnc2c(N)ncnc21)Oc1ccccc1.O=C(O)/C=C/C(=O)O` [crystal form A, 9-[(R)-2-[[(S)-[[[1-(isopropoxycarbonyl)-1-methyl]ethyl]amino]phenoxyphosphinyl]methoxyl]propyl]adenine fumarate], the Appearance (Stability Study; 0 month) is reported as “off-white powder”, the “Crystal Form” value (Stability Study; 0 month) is reported as “Crystal form A” and the “Product Purity” value (Stability Study; 0 month) is reported as 98.97%. For the same compound, the Appearance (Stability Study; 3 months) was “off-white powder”, the “Crystal Form” value (Stability Study; 3 months) was “Crystal form A” and the “Product Purity” value (Stability Study; 3 months) was 98.95%. The Appearance (Stability Study; 6 months) was “off-white powder”, the “Crystal Form” value (Stability Study; 6 months) was “Crystal form A” and the “Product Purity” value (Stability Study; 6 months) was 98.92%. For the same compound, the Stability (Stability Study; room temperature) was “stable at room temperature”, the “Chemical degradation in the stability test” value (Stability Study; stability test) was “did not undergo chemical degradation” and the “Crystal form transformation in the stability test” value (Stability Study; stability test) was “did not undergo transformation”. The Flowability (Flowability Study) was “good flowability”, the “Repose Angle” value (Flowability Study; listed as Example 1) was 36° and the “Repose Angle” value (Flowability Study; listed as Example 2) was 35°. For the same compound, the “Repose Angle” value (Flowability Study; listed as Example 3) was 34° and the bioavailability [1] was 81%.

From patent US9840525B2, “Crystal form of tenofovir prodrug, preparation method thereof, and method of use thereof” (Jiangsu Hansoh Pharmaceutical Group Co., Ltd., priority 2014, dated 2017)
